Assay results reported in article PMC11540844, “Enhancing transcription–replication conflict targets ecDNA-positive cancers” (Nature, 2024).
pIC50: −log10 of the molar value. Read-outs that look alike come from different tables or passages of the source.

Assays:
COLO320DM cells = assay: Cell viability / CTG proliferation (CellTiter-Glo); assay type: cell-based, human
Procedure: (§1) Cell viability assay was performed using CellTiter-Glo (Promega, catalgoue no. G8461) as previously described. Briefly, cells were seeded into a 384-well plate one day before adding inhibitors. Equal volumes of vehicles or drugs diluted at indicated concentration were added into each well the next day, and the cells were incubated for three days. On the third day, after equilibrating plate and CellTiter-Glo reagent at room temperature for 30 min, reagent was added into each well and incubated for 15 min at room temperature. Luminescence was measured using a Synergy 2 microplate reader. Four biological replicates were performed for each condition. Data analysis was performed with GraphPad Prism (v.9.1.0).

COLO320HSR cells = assay: Cell viability / CTG proliferation (CellTiter-Glo); assay type: cell-based, human; conditions: for pIC50: Extended Data Fig. 8
Procedure: as §1

SNU16 cells = assay: Cell viability (CellTiter-Glo); assay type: cell-based, human; conditions: Extended Data Fig. 8; read-out: IC50 SNU16
Procedure: as §1, with “(v.9.1.0). […]” for “(v.9.1.0).”

GBM39HSR cells = assay: Cell viability (CellTiter-Glo); assay type: cell-based, human; conditions: Extended Data Fig. 8
Procedure: as §1

GBM39ec cells = assay: Cell viability (CellTiter-Glo); assay type: cell-based, human; conditions: Extended Data Fig. 8
Procedure: as §1

[1] = test system: γH2AX in COLO320DM and COLO320HSR cells; assay: γH2AX IF combined with EdU labelling; assay type: cell-based, human; conditions: COLO320DM vs COLO320HSR, especially EdU+ cells
Procedure: Coverslips were coated with 100 µg ml^−^1 poly-L-lysine overnight or 10 µg ml^−^1 laminin for 1 h at 37 °C before seeding cells. Asynchronized cells were seeded onto slides and subject to different treatment. Where indicated, EdU was added to each well at 10 µg ml^−^1 30 min before collecting samples. IF and dual-IF DNA FISH staining were performed as described before. Briefly, slides were fixed with ice-cold 4% paraformaldehyde (PFA) for 15 min, followed by permeabilization with 0.5% Triton X-100 in PBS for 15 min at room temperature. Samples were blocked with 3% BSA in PBS for 1 h at room temperature before incubation with primary antibody diluted in blocking buffer at 4 °C overnight. Dilution ratio for first antibodies was as follows: γH2Ax, 1:500; pRPA2-S33, 1:1,000; pCHK1S345, 1:250; 53BP1, 1:500; cyclin A, 1:100; pRNAPII S2/S4, 1:1,000. […]
Image analysis and quantification were performed using the open-source software CellProfiler (v.4.2.1). For foci number analysis, DAPI staining, IF staining and DNA FISH channel were analysed through automatic thresholding and segmentation to cell nuclei, pRPA2S33/γH2AX foci and DNA FISH foci respectively. […] For fluorescence intensity measurement, nuclei were called based on DAPI channel through automatic thresholding and segmentation; mean fluorescence intensity was retrieved by measuring mean fluorescence intensity within each nucleus.

[2] = test system: ecDNA-containing tumour cells; assay: TUNEL and PI-Annexin V staining (apoptosis); assay type: cell-based, human; conditions: 1 µM CHIR-124, ecDNA-containing vs HSR cells
Procedure: TUNEL assay (Invitrogen, catalogue no. C10617) was performed to detect DNA fragmentation during apoptosis. COLO320DM, COLO320HSR and SNU16 cells were treated with 1 µM CHIR-124 for indicated times. All cells including floating cells were collected and spun down onto slides using a cytospin (Thermo Scientific Cytospin 4 Centrifuge). Slides were fixed with 4% PFA and permeabilized with 0.25% Triton X-100, followed by labelling of free double strand end with EdUTP by reaction catalysed by TdT enzyme in a humidified chamber at 37 °C for 60 min. Incorporated EdUTP was detected through Click-iT Plus TUNEL reaction according to the manufacturer’s manual at 37 °C for 30 min. Slides were counterstained with DAPI and mounted with ProLong Diamond Antifade.
Cell apoptosis was detected through flow cytometry using a FITC Annexin V Apoptosis Detection Kit (BD Biosciences, catalogue no. 556547). Cells were treated with 1 µM of CHIR-124 for the indicated time, and all the cells including floating cells were collected. After washing with PBS twice and cell number counting, cells were resuspended in 1× binding buffer provided by the kit at a concentration of 1 × 10^6 cells per millilitre. […] After incubation at room temperature for 15 min, all the samples were analysed with BD LSR II flow cytometry (BD Biosciences) within 1 h. Flow cytometry data were analysed through Beckman Coulter Kaluza software (v.2.1).

[3] = molecular target: T1, Full-length human CHK1 protein (Homo sapiens, UniProt O14757); assay: Kinase HTRF biochemical assay (CHK1 enzyme inhibition); conditions: HTRF KinEASE, ATP 1 mM; read-out: CHK1 biochemical potency (IC50)
T1 construct: purchased Carna Biosciences, Inc. 02-117
T1 sequence (O14757 1-476): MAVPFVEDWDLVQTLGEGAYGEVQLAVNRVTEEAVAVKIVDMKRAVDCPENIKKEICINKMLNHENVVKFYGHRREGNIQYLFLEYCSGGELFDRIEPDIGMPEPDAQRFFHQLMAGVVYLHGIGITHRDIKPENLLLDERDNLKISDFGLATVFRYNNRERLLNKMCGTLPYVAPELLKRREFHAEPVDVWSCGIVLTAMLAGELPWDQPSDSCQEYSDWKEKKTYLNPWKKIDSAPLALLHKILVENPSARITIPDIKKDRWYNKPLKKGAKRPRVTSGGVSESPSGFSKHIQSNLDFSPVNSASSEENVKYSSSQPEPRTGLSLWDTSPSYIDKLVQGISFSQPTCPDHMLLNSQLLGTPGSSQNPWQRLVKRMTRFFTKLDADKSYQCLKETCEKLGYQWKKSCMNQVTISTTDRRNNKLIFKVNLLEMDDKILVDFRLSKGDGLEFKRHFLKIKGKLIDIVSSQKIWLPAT
Procedure: CHK1 enzyme activity was measured using a homogeneous time resolved fluorescence (HTRF) KinEASE assay (Cisbio, catalogue no. 62ST1PEC). Full-length human CHK1 protein (GenBank accession number NP_001265.1) was obtained from Carna Biosciences, Inc. (catalogue no. 02-117). The enzyme reaction was carried out in assay buffer containing (final concentrations): CHK1 enzyme (0.012 ng µl^−^1), MgCl2 (5 mM) and DTT (1 mM). To determine compound dose response, DMSO stock solutions were serially diluted in a ten-point concentration series in duplicate. Compound solution (50 nl) was added to 384-well assay plates (Greiner, catalogue no. 784075). To each well containing compound solution was added assay buffer solution (5 µl). Plates were centrifuged at 1,000 rpm for 1 min, then incubated at room temperature for 10 min. The reaction was started by addition of substrate buffer (5 µl per well) containing (final concentrations): STK substrate 1-biotin (120 nM) and ATP (1 mM). Assay plates were centrifuged at 1,000 rpm for 1 min, then incubated at room temperature for 60 min. The reaction was stopped by the addition of detection buffer (Cisbio, 10 µl) containing (final concentrations): STK antibody cryptate (0.25 nM) and streptavidin-XL665 (7.5 nM). […] HTRF signal was read on an EnVision multimode plate reader (Cisbio) in HTRF mode. […]

CHK1/CHK2 = CHK1/CHK2 selectivity; assay type: biochemical
pCHK1-S345 in HT29 cells = assay: AlphaLISA SureFire Ultra p-CHK1 (Ser345) assay in HT29 cells; assay type: cell-based; conditions: 16 h, read-out: CHK1 cellular potency AlphaLisa (IC50)
Procedure: Compound activity in cells was measured using an AlphaLISA SureFire Ultra p-CHK1 (Ser345) assay (Perkin Elmer, catalogue no. ALSU-PCHK1-A10K). HT29 cells were cultured in McCoy 5 A medium with 10% FBS and 1% penicillin-streptomycin and seeded to 96-well plates (Corning, catalogue no. 3599). Compounds were serially diluted in DMSO over a 10-point dose range with 3-fold dilution, and compound solution was added to each well containing cells. Plates were centrifuged at 1,000 rpm for 30 s. Plates were incubated at 37 °C for 16 h. Supernatant was removed by flicking the plate against a paper towel. Wells were washed once with PBS solution. To each well was added freshly prepared lysis buffer and plates were agitated on a plate shaker at 400 rpm for 30 min. The 96-well cell plates were centrifuged at 1,500 rpm for 1 min. From each well was transferred 10 µl of the lysates to a 384-well Optiplate (Perkin Elmer, catalogue no. 6007290). To each well was added Acceptor Mix (5 µl) and the plates were sealed and wrapped in foil. Plates were agitated on a plate shaker for 2 min, then incubated at room temperature for 1 h. To each well was added Donor Mix (5 µl) and the plates were sealed and wrapped in foil. Plates were agitated on a plate shaker for 2 min, then incubated at room temperature for 1 h. AlphaLisa signal was read on an EnVision multimode plate reader (Perkin Elmer). […]

[4] = Extended Data Fig. 8, read-out: IC50 COLO320DM

Row | pIC50 [3] | pIC50 (pCHK1-S345 in HT29 cells) | pIC50 (COLO320DM cells; COLO320DM cells, read-out: CTG proliferation ecDNA+ (IC50)) | SMILES | pIC50 (COLO320DM cells; [4]) | pIC50 (COLO320HSR cells) | IC50 fold higher in COLO320HSR compared to COLO320DM (COLO320HSR cells; Fig. 3d) | pIC50 (SNU16 cells) | pIC50 (GBM39HSR cells) | pIC50 (GBM39ec cells) | DNA damage (γH2AX IF) [1] | cell apoptosis (TUNEL, PI-Annexin V) [2] | CHK1/CHK2 selectivity (CHK1/CHK2) [×]
1 |  |  |  | O=c1[nH]c2ccc(Cl)cc2c(N[C@@H]2CN3CCC2CC3)c1-c1nc2ccccc2[nH]1 [CHIR-124] | 6.84 | 5.95 | approximately 4 fold | 6.82 | 5.78 | 6.24 | significantly higher DNA damage in COLO320DM compared with COLO320HSR | more rapid and higher degree of cell apoptosis | 
2 | 7.92 | 6.91 | 6.98 | N[C@@H]1CCCN(c2c(Br)cnc3[nH]cc(NC(=O)C4CC4)c23)C1 [GDC-0575] | 6.78 | 6.23 |  |  |  |  |  |  | 1.5
